The text below walks through data of patent US20260345598A1 (INTRA-CELLULAR THERAPIES, INC., priority 2023, published 2026).

For data set [1], the system named is NMDA/AMPA receptors and downstream BDNF and mTOR signaling. The conditions noted are these: compared with ketamine; cited from earlier work.
Data set [2] addresses 5-HT2A receptor. To be noted: read-out: 5-HT2A receptor antagonism Ki; cited from earlier work.
For the next data set, the system named is NMDA and AMPA receptor. The conditions noted are these: rat mPFC slices; cited from earlier work.
In data set [3] the test system is patients with acute exacerbated schizophrenia. The data set can be described thus: Clinical studies in patients with acute exacerbated schizophrenia, emotional experience symptoms. To be noted: 60 mg P.O. once daily, up to 28 days, two clinical studies, vs placebo. The class given is in vivo, human. From the text:
Social avoidance can be a critical and debilitating symptom in patients suffering from anxiety disorders, especially social anxiety disorder, as well as in patients suffering from traumatic anxiety disorders. Social avoidance is often one of the key determinants of whether a person with a severe anxiety disorder is capable of maintaining familial relationships or employment relationships. […] Negative symptoms of schizophrenia can be divided into two categories: emotional experience (e.g., emotional withdrawal, passive social withdrawal, active social avoidance) and emotional expression (e.g., blunted effect, poor rapport, lack of spontaneity, and motor retardation). […] These are the symptoms that are most highly correlated with interpersonal functioning.

The subject of data set [4] is 5-HT2A receptor. To be noted: cited from earlier work.
The subject of data set [5] is PFC mTORC1-related signaling pathways. The data set can be described thus: PFC mTORC1-related signaling and neurotrophic factor genes after acute administration. The format is in vivo. From the text: As a result, glutamate release is increased which enhances AMPA mediated currents, BDNF release, and mTORC1 activation. Increased synaptogenesis has been associated with enhanced mTORC1 signaling in the PFC.

In data set [6] the test system is glutamatergic NMDA NR2B (GluN2B) receptors. To be noted: mesolimbic; cited from earlier work.
In another data set the target is D2 receptor. The conditions noted are these: presynaptic D2 receptor partial agonism and postsynaptic D2 receptor antagonism; cited from earlier work.
The conditions of data set [7]: in vivo; cited from earlier work.
In another data set the test system is serotonin receptor. To be noted: pre-treatment, dose blocking about 30% of 5-HT2A receptors; cited from earlier work.
The subject of data set [8] is 5-HT2A receptor. The conditions noted are these: pre-treatment; cited from earlier work.
For data set [9], the system named is dendritic spines in cells of the frontal cortex. To be noted: cited from earlier work.
For data set [10], the system named is medial prefrontal cortex neurons. To be noted: mouse, in vivo; cited from earlier work.
The subject of the next data set is right lateral PFC. To be noted: patients with MDD, after ketamine treatment; cited from earlier work.

Usually Ki stands for a measure of affinity in units of concentration, obtained from inhibition or displacement. In the case of `CN1CCN2c3c(cccc31)[C@@H]1CN(CCCC(=O)c3ccc(F)cc3)CC[C@@H]12` [Lumateperone, 4-((6bR,10aS)-3-methyl-2,3,6b,9,10,10a-hexahydro-1H-pyrido[3′,4′: 4,5]pyrrolo[1,2,3-de]quinoxalin-8 (7H)-yl)-1-(4-fluorophenyl)-1-butanone], in data set [1], the “activity on NMDA/AMPA receptors and downstream BDNF and mTOR signaling” value is “very similar activity on NMDA/AMPA receptors and downstream BDNF and mTOR signaling as ketamine”. Besides, the Ki on 5-HT2A receptor [2] is 0.0005 µM. In addition, in the data set with NMDA and AMPA receptor, the “glutamatergic neurotransmission, NMDA and AMPA receptor conductance” value was “enhance glutamatergic neurotransmission by effects on both NMDA and AMPA receptor conductance”. Further, the “symptoms of emotional experience” value in data set [3] was “significant and unexpected improvement in symptoms of emotional experience compared to placebo”. Besides, in the data set with 5-HT2A receptor [4], the “5-HT2A receptor functional activity” value is reported as “strong antagonist of the 5-HT2A receptor” and the “serotonin receptor agonist activity” value is “does not have serotonin receptor agonist activity”. For the same compound, the “PFC mTORC1-related signaling and neurotrophic factor genes” value in data set [5] was “stimulates PFC mTORC1-related signaling pathways, as well as some important genes coding for neurotrophic factors, such as BDNF and VEGF”. Moreover, in data set [6], the “phosphorylation of NMDA NR2B (GluN2B) receptors” value is “stimulates phosphorylation of glutamatergic NMDA NR2B (GluN2B) receptors in a mesolimbic specific manner”. Further, the Ki at D2 receptor was 0.032 µM.
With `CN(C)CCc1c[nH]c2cccc(O)c12` [Psilocin], in data set [7], the side effects entry is “can cause nausea and panic attacks”. For the same compound, in the data set on 5-HT2A receptor [4], the “5-HT2A receptor functional activity” value was “strong agonist of the 5-HT2A receptor”.
Regarding `O=C(c1ccc(F)cc1)C1CCN(CCn2c(=O)[nH]c3ccccc3c2=O)CC1` [ketanserin], the “psilocybin-induced head twitch response” value in the data set on serotonin receptor is given as “sufficient to block the psilocybin-induced head twitch response”. Besides, the 5-HT2A receptors blocked entry in the data set on 5-HT2A receptor [8] is “about 30%”. In addition, in [9] (pre-treatment with 5-HT2A receptor antagonist), the “effect on psilocybin-induced growth of dendritic spines” value was “did not eliminate the psilocybin-induced growth of dendritic spines”.
Take `CN(C)CCc1c[nH]c2cccc(OP(=O)(O)O)c12` [psilocybin]: the “5-HT2A receptor functional activity” value with 5-HT2A receptor [4] is given as “strong agonist of the 5-HT2A receptor”. For the same compound, the “excitatory neurotransmission in medial prefrontal cortex (mEPSCs)” value in [10] is given as “increased excitatory neurotransmission in the medial prefrontal cortex”. Moreover, the “persistence of changes in dendritic spine density” value in data set [9] (following the single dose) is given as “at least a month”. The “dendritic spine formation/elimination rate” value in data set [9] (male and female mice) is given as “increased formation rate, rather than reduced elimination rate”. Besides, in data set [9] (single dose, within one day), the “dendritic spine density and spine head width” value is listed as “measurable increase in dendritic spine density, as well as increased spine head width, within one day”.
In the case of `CNC1(c2ccccc2Cl)CCCCC1=O` (centres unmarked) [ketamine], the “functional connectivity in the right lateral PFC” value with right lateral PFC is reported as “improved functional connectivity in the right lateral PFC”.
